Here are results for five molecules from PMC4404333, “Identification of Selective Inhibitors of the Plasmodium falciparum Hexose Transporter PfHT by Screening Focused Libraries of Anti-Malarial Compounds” (PLoS ONE, 2015).

Molecules are shown by their SMILES. ≈ marks a conversion by molar mass, not a printed value. Structures can show the parent of a compound that is named as a salt.

A short description of one data set: Solubility assay. Type of data set: physicochemical. The note with it: aqueous buffer, kinetic from dmso stock, PBS pH 7.4, room temperature. The method, then:
Next, 5 μL of this reference stock plate was mixed with 70 μL of 1-propanol and 75 μL of PBS (pH 7.4) to make the reference plate, and the UV spectrum (250–500 nm) of the reference plate was read. Then, 6 μL of 10 mM test compound stock was added to 600 μL of PBS, pH 7.4, in a 96-well storage plate and mixed. The storage plate was sealed and incubated at room temperature for 18 h. The suspension was then filtered through a 96-well filter plate (pION Inc.). Next, 75 μL of filtrate was mixed with 75 μL of 1-propanol to make the sample plate, and the UV spectrum of the sample plate was read. Calculations were done using μSOL Evolution software based on the area under the curve (AUC) of the UV spectrum of the sample plate and the reference plate. All compounds were tested in triplicate.

The nature of data set [1]: Parallel artificial membrane permeability assay (PAMPA). The note with it: for Permeation: pH 7.4; for Retention: retention in artificial membrane. The procedure: A parallel artificial membrane permeability assay (PAMPA) was conducted on a Biomek FX lab automation workstation (Beckman Coulter, Inc.) with PAMPA evolution 96 command software (pION Inc.) as follows: 3 μL of 10 mM test compound stock was mixed with 600 μL of PBS (pH 7.4) to make diluted test compound. Then 150 μL of diluted test compound was transferred to a UV plate (pION Inc.), and the UV spectrum was read as the reference plate. The membrane on a preloaded PAMPA sandwich (pION Inc.) was painted with 4 μL of GIT lipid (pION Inc.). The acceptor chamber was then filled with 200 μL of acceptor solution buffer (pION Inc.), and the donor chamber was filled with 180 μL of diluted test compound. The PAMPA sandwich was assembled, placed on the Gut-Box controlled environment chamber and stirred for 30 min. The aqueous boundary layer was set to 40 μm for stirring. The UV spectrum (250–500 nm) of the donor and the acceptor were read. The permeability coefficient was calculated using PAMPA Evolution 96 Command software (pION Inc.) based on the AUC of the reference plate, the donor plate, and the acceptor plate. All compounds were tested in triplicate.
(In general: In PAMPA a lipid-coated filter parts donor from acceptor wells.)

The test system of data set [2] is BJ cell line (human foreskin fibroblasts). Kind of data set: Mammalian cell drug susceptibility assay (Cell Titer Glo, 72 h). In kind it is cell-based. The procedure: The BJ cell line (human foreskin fibroblasts), which express GLUT1 [26], was purchased from the ATTC and cultured according to recommendations. 1000 exponentially growing cells were plated per well (25 μL) in white polystyrene flat bottom sterile 384-well tissue culture treated plates (Corning), and incubated overnight at 37°C in a humidified 5% CO2 incubator. DMSO inhibitor stock solutions were pin-transferred (V&P Scientific) the following day. Plates were placed back in the incubator for 72 h incubation and equilibrated at room temperature for 20 min before addition of 25 μL Cell Titer Glo (Promega) to each well. Plates were shaken on an orbital shaker for 2 min at 500 rpm. Luminescence was read after 15 min on an Envision plate reader (Perkin Elmer). EC50 values were calculated with a custom program (RISE, Robust Investigation of Screening Experiments) using a four-parameter logistic equation.
Background: ATP-based viability assays read luminescence as a measure of living cells.

Data set [3] deals with intraerythrocytic P. falciparum parasites. The arrangement: method as in PMID 12792024. As to conditions: read-out: IC50 growth of intraerythrocytic P. falciparum parasites in vitro; cited from earlier work.
A further data set relates to P. berghei parasites. On the set-up: method as in PMID 12792024. As to conditions: mice infected with P. berghei, 25 mg/kg (i.p.) twice daily; cited from earlier work.
In data set [4] the test system is hepatic stage and ookinetes of P. berghei. The arrangement: method as in PMID 21169382, PMID 21402842. The note with it: cited from earlier work.
The next data set has as its target T1, human GLUT1 (Homo sapiens, UniProt P11166).
T1 sequence (P11166 1-492): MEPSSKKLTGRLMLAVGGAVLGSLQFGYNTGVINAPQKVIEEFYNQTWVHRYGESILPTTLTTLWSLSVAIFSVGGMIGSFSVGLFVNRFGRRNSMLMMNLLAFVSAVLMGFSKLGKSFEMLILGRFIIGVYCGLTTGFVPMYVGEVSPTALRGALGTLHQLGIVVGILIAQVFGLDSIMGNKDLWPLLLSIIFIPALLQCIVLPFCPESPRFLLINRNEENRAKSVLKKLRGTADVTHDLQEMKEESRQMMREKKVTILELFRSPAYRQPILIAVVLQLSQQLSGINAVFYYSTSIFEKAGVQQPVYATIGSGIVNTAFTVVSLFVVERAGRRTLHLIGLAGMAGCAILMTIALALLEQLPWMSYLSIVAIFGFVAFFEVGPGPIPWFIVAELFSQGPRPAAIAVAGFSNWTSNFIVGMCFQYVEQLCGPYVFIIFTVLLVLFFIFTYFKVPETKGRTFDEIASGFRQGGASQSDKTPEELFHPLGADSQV
The note with it: 1 mM concentration; cited from earlier work.

The target in another data set is PfHT (Plasmodium falciparum, UniProt Q7KWJ5). As to conditions: read-out: Ki for glucose uptake by PfHT; cited from earlier work.
Sequence of PfHT (Q7KWJ5 whole entry): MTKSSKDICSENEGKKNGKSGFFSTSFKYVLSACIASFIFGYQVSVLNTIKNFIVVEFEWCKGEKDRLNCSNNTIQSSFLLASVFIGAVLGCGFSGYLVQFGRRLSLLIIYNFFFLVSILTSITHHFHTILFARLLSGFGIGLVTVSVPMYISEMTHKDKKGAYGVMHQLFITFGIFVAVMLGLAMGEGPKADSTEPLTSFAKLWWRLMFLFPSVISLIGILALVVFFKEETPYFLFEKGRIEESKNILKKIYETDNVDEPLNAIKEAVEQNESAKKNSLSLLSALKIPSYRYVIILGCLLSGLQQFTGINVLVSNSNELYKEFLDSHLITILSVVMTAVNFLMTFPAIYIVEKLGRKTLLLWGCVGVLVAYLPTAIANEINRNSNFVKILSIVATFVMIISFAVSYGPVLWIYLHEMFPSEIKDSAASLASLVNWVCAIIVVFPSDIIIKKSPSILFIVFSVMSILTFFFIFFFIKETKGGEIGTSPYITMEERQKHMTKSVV

For orientation: solubility means how much of the substance goes into solution per volume. A low value points to little dissolved substance. Regarding `CCCSc1ccc2nc(NC(=O)OC)[nH]c2c1` [Albendazole, albendazole, reference compound], in “Solubility assay”, the solubility at 18 h is 5.9 ± 2.3 µM (≈ 1.57 µg/mL). Moreover, in data set [1], the Permeation came out at 286 ND 10^-6 cm/s and the Retention stood at 59 ± 27%.
`NC(=O)N1c2ccccc2C=Cc2ccccc21` [Carbamazepine, carbamazepine, reference compound]: in “Solubility assay” (PBS buffer), the solubility at 18 h was 87 ± 1.2 µM (≈ 20.6 µg/mL). In data set [1], the Permeation is on record as 85 ± 21 10^-6 cm/s and the Retention is given as 43 ± 3.0%.
In general, EC50 refers to the concentration giving half of the maximal effect. Consider `CC(C)=CCC[C@]1(C)C=Cc2c(O)c3c(c(CC=C(C)C)c2O1)O[C@]12C(=C[C@@H]4C[C@H]1C(C)(C)O[C@@]2(C/C=C(/C)C(=O)O)C4=O)C3=O` [Gambogic acid, gambogic acid, reference compound], for which the EC50 in data set [2] turned out to be 2.5 µM. That is a single-digit micromolar value.
Regarding `CNC(=C[N+](=O)[O-])NCCSCc1ccc(CN(C)C)o1` [Ranitidine HCl, ranitidine, reference compound], in the data set “Solubility assay” (PBS buffer), the solubility at 18 h was determined as 84 ± 1.2 µM. For the same molecule, in data set [1], the Permeation was 0 ± 0 10^-6 cm/s and the Retention came out at 1.7 ± 1.3%.
A word on the IC50: it is the concentration needed to halve the response being measured. As usually defined, the Ki is a dissociation constant, usually derived from enzyme kinetics or from competition with a known ligand. `C=CCCCCCCCCCO[C@@H]([C@H](O)[C@H](O)CO)[C@@H](O)C=O` [compound 3361, 3-O-((undec-10-en)-1-yl)-D-glucose]: the IC50 in data set [3] was 15.7 µM. Besides, the reduction in parasitemia in the data set with P. berghei parasites was 40%. Besides, in data set [4], the “inhibition of viability of liver and mosquito stages” value is recorded as “strong inhibition of viability”. Moreover, the “inhibition of GLUT1” value at human GLUT1 is “no significant inhibition”. The inhibition constant (Ki) on PfHT is 53 µM.
